Laboratory results as given in article PMC5387716, “Discovery of monocarbonyl curcumin-BTP hybrids as STAT3 inhibitors for drug-sensitive and drug-resistant breast cancer therapy” (Scientific Reports, 2017).

Key:
Cyclin D1 = experiment: Western blot of Cyclin D1; assay type: cell-based, human; conditions: MCF-7 and MCF-7/DOX cells, 24 h
Experimental: (§1) MCF-7 or MCF-7/DOX cells were incubated with various concentrations of 6b for 24 h. After trypsinization, cells were treated with 1× RIPA lysis buffer (50 mM Tris–HCl, pH 7.4, 150 mM NaCl, 0.25% deoxycholic acid, 1% NP-40, 1 mM EDTA and protease inhibitors) (Amresco, Solon, USA) to extract the total proteins. An aliquot of proteins from the total cell lysates (30 to 60 μg/lane) was separated by sodium dodecyl sulfate (10%) polyacrylamide gel electrophoresis (SDS–PAGE, Bio-Rad Laboratories, Hercules, CA), wet-transferred to NC membrane (Bio-Rad Laboratories, Hercules, CA) and blotted with primary antibodies specific for STAT3, p-STAT3, p-Jak2, Jak2, p-Src, Src, Erk, P-Erk, PARP, cleaved PARP, Bcl-2, Bax, Cyclin D1, P-gp and GAPDH. Bound immuno-complexes were detected using ChemiDOC™ XRS + system (Bio-Rad Laboratories, Hercules, CA).

MCF-7/DOX cells = experiment: Colony survival assay, MCF-7/DOX; assay type: cell-based, human; conditions: 24 h treatment, 14 d culture
Experimental: MCF-7 or MCF-7/DOX cells were cultured a 6-well plate at a density of 800–1,000 cells/well with regular growth medium. Cells were treated for 24 h with the vehicle and 6b at 0.15–1 μM on the following day. Cells were allowed to grow for 10–14 d until colonies were visible. Crystal violet solution (Sigma, St. Louis, MO, USA) was used to stain the colonies for 4 hours and colonies were imaged.

Jak2 = experiment: Western blot of p-Jak2; assay type: cell-based, human; conditions: MCF-7 and MCF-7/DOX cells, 24 h
Experimental: as §1

Bcl-2 = experiment: Western blot of Bcl-2; assay type: cell-based, human; conditions: MCF-7 and MCF-7/DOX cells, 24 h
Experimental: as §1

Src = experiment: Western blot of p-Src; assay type: cell-based, human; conditions: MCF-7 and MCF-7/DOX cells, 24 h
Experimental: as §1

Bax = experiment: Western blot of Bax; assay type: cell-based, human; conditions: MCF-7 and MCF-7/DOX cells, 24 h
Experimental: as §1

MCF-7 cells [1] = experiment: Annexin V-APC/7-AAD flow cytometry of apoptosis, MCF-7; assay type: cell-based, human; conditions: 24 h
Experimental: MCF-7, MCF-7/DOX or MCF-10A cells, at a density of 2.5 × 10^5 cells per well, were cultured in regular growth medium in 6-well plates for 24 h and treated in duplicate with different concentrations of 6b or curcumin for 24 h. The cells were harvested, washed and stained with 5 μL of Annexin V-APC and 5 μL of 7-AAD at room temperature for 15 min. Cells were then analyzed by flow cytometry (488 nm excitation and 600 nm emission filters) using a BD FACSCalibur flow cytometer (Becton & Dickinson Company, Franklin Lakes, NJ).

Cyclin D1 gene = experiment: Quantitative real-time RT-PCR of Cyclin D1; assay type: cell-based, human; conditions: 24 h
Experimental: (§2) Levels of mRNA expression were analyzed with the RT-PCR assay, with total RNA isolated from MCF-7 or MCF-7/DOX cells using an EASYspin Plus tissue/cell RNA extraction kit (Aidlab Biotechnologies Co. Ltd). RNA was quantified by measuring absorption at 260 nm and 1 μg of RNA was reverse transcribed to cDNA using the Transcriptor First Strand cDNA Synthesis Kit (Roche Diagnostics, Basel, Switzerland). Thermal cycling conditions included 95 °C initial denaturation for 5 min, followed by 40 cycles of denaturation (10 s at 95 °C), annealing (15 s at 60 °C) and extension (15 s at 72 °C with a single fluorescence measurement), a melt curve program (60–95 °C with a 0.11 °C/s heat increase and continuous fluorescence measurement) and a cooling step to 40 °C. The Δ cycle threshold method was used for the calculation of relative differences in mRNA abundance with a LightCycler 480 (Roche Molecular Biochemicals, Mannheim, Germany). The data were normalized to the expression of GAPDH. The results were expressed as fold-changes. The RT-PCR primers that were used in this study are listed in the supporting information.

Bax gene = experiment: Quantitative real-time RT-PCR of Bax; assay type: cell-based, human; conditions: 24 h
Experimental: as §2

MCF-7 cells [2] = experiment: MTT anti-proliferative assay, MCF-7; assay type: cell-based, human; conditions: Homo sapiens, MCF7, 48 h, read-out: MCF-7 IC50 ± SD
Experimental: All cell lines were purchased from Cell Bank of Shanghai Institute of Biochemistry and Cell Biology, Chinese Academy of Sciences (Shanghai, China). Human breast carcinoma cells (MCF-7 and MCF-7/DOX), breast epithelial cells (MCF-10A) and normal human liver cells (LO2) were maintained in RPMI-1640 medium. All cells were supplemented with 12% fetal bovine serum containing 50 μg/ml penicillin and 50 μg/ml streptomycin. Cells were grown to 80% confluency in a tissue culture flask at 37 °C in a humidified atmosphere containing 5% CO2, and then were trypsinized with 1 × Trypsin-Versene and split. The MCF-7/DOX cell line we used was established from its parental cell line MCF-7 cell by gradually increasing the concentration of DOX to which the cells were exposed in a stepwise manner over a period of 8 months. […] The cells were incubated in drug-free medium for at least 1 week before use.
Cells (MCF-7, MCF-7/DOX, MCF-10A, LO2) were seeded in 96-well plates at a density of 3,000–6,000 cells per well. The cells were incubated overnight (16 h) in a humidified 5% CO2 incubator at 37 °C. After media removal, different concentrations of test compounds were added in triplicate to the plates in 200 μL of fresh media and were incubated with the cells at 37 °C for 48 h. […] Cell viability was evaluated using 3-(4, 5-dimethylthiazolyl)-2,5-diphenyltetrazoliumbromide (MTT). The absorbance was read by an ELISA reader (SpectraMax Plus384, Molecular Devices, Sunnyvale, CA) at a test wavelength of 570 nm and a reference wavelength of 630 nm. Cell viability was calculated using the following formula: […]

STAT3 = experiment: EMSA of STAT3 DNA-binding activity (hSIE probe); assay type: cell-based, human; conditions: nuclear extracts of MCF-7 cells, 24 h
Experimental: MCF-7 cells were cultured overnight and then treated with compound 6b in fresh regular growth medium for 24 h. The cells were harvested and nuclear extract preparations and EMSA analysis were carried out as previously described. The ^32P-labeled oligonucleotide, hSIE probe, was used to bind STAT3.

melting point: 250 to 251 °C
IC50 (MCF-7 cells [2]): 520 ± 160 nM
SMILES: COc1ccc(/C=C/C(=O)N2CCN(C(=O)C3=Cc4cc(Br)ccc4S3(=O)=O)CC2)cc1 [Compound 6b, (E)-1-(4-(5-bromo-1,1-dioxidobenzo[b]thiophene-2-carbonyl)piperazin-1-yl)-3-(4-methoxyphenyl)prop-2-en-1-one]
expression of Cyclin D1 (protein) (Cyclin D1): inhibited
clonogenic ability / colony formation (MCF-7/DOX cells; 0.25 μM): significant reduction in clonogenic ability
clonogenic ability / colony formation (MCF-7/DOX cells; 0.5 μM): almost a cessation of colony formation
phosphorylation of Jak2 (Jak2): inhibited
expression of Bcl-2 (protein) (Bcl-2): inhibited
p-Src expression (Src): little effect
expression of Bax (protein) (Bax): increased
apoptosis rate (MCF-7 cells [1]; 1 μM): 15.7%
apoptosis rate (MCF-7 cells [1]; 2 μM): 37.9%
apoptosis rate (MCF-7 cells [1]; 4 μM): 67.2%
decrease in the gene expression level of Cyclin D1 (Cyclin D1 gene; MCF-7/DOX cells, 1.0 μM): 18.5%
decrease in the gene expression level of Cyclin D1 (Cyclin D1 gene; MCF-7/DOX cells, 2.0 μM): 51.0%
decrease in the gene expression level of Cyclin D1 (Cyclin D1 gene; MCF-7/DOX cells, 4.0 μM): 75.0%
Cyclin D1 gene level (in words) (Cyclin D1 gene; MCF-7 and MCF-7/DOX cells): decreased in a dose-dependent manner
decrease in the gene expression level of Cyclin D1 (Cyclin D1 gene; MCF-7 cells, 1.0 μM): 16.0%
decrease in the gene expression level of Cyclin D1 (Cyclin D1 gene; MCF-7 cells, 2.0 μM): 28.4%
decrease in the gene expression level of Cyclin D1 (Cyclin D1 gene; MCF-7 cells, 4.0 μM): 45.5%
Bax gene expression increase (Bax gene; MCF-7/DOX cells, 1.0 μM): 14.0%
Bax gene expression increase (Bax gene; MCF-7/DOX cells, 2.0 μM): 76.5%
Bax gene expression increase (Bax gene; MCF-7/DOX cells, 4.0 μM): 125.0%
Bax gene level (in words) (Bax gene; MCF-7 and MCF-7/DOX cells): upregulated
Bax gene expression increase (Bax gene; MCF-7 cells, 1.0 μM): 15.0%
Bax gene expression increase (Bax gene; MCF-7 cells, 2.0 μM): 71.5%
Bax gene expression increase (Bax gene; MCF-7 cells, 4.0 μM): 97.5%
STAT3 DNA-binding activity (STAT3): strongly inhibited STAT3 DNA-binding activity in a dose-dependent manner
